In patent publication US9353090B2, “Heterocyclic carboxylic acids as activators of soluble guanylate cyclase” (Boehringer Ingelheim International GmbH, priority 2014, dated 2016):
Values after ≈ are worked out from the molar mass of the structure shown.

How the values were obtained:
[1] = biological target: human soluble guanylate cyclase alpha 1 and beta 1 subunits (sGC) (Homo sapiens (Human), UniProt Q02108+Q02153); experiment: sGC cellular activator assay (cGMP, HTRF), in the presence and absence of 50% human serum; assay type: cell-based; conditions: CHO cells stably expressing human sGC alpha 1/beta 1, preincubated with 40 microM ODQ; cGMP by HTRF; Table 2 does not state whether with or without 50% human serum
human soluble guanylate cyclase alpha 1 and beta 1 subunits (sGC), sequence (Q02108 whole entry partner): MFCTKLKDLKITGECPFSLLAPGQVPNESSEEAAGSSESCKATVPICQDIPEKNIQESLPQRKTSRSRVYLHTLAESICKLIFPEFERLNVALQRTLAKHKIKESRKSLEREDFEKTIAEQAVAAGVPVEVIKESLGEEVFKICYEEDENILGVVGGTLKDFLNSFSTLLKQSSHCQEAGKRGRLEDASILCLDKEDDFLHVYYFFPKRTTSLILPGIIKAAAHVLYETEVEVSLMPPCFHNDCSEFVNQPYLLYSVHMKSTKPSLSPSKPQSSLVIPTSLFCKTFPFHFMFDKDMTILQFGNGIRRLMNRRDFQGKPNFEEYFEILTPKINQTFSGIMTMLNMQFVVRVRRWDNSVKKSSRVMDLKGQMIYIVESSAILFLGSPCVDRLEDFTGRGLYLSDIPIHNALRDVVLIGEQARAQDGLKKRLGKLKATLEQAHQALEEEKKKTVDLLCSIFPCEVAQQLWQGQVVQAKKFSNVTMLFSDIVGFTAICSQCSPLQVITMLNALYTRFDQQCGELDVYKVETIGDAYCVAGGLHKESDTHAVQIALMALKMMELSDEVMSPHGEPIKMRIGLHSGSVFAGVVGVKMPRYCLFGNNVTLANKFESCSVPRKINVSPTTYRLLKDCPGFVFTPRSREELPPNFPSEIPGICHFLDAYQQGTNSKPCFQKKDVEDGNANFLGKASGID
human soluble guanylate cyclase alpha 1 and beta 1 subunits (sGC), sequence (Q02153 whole entry): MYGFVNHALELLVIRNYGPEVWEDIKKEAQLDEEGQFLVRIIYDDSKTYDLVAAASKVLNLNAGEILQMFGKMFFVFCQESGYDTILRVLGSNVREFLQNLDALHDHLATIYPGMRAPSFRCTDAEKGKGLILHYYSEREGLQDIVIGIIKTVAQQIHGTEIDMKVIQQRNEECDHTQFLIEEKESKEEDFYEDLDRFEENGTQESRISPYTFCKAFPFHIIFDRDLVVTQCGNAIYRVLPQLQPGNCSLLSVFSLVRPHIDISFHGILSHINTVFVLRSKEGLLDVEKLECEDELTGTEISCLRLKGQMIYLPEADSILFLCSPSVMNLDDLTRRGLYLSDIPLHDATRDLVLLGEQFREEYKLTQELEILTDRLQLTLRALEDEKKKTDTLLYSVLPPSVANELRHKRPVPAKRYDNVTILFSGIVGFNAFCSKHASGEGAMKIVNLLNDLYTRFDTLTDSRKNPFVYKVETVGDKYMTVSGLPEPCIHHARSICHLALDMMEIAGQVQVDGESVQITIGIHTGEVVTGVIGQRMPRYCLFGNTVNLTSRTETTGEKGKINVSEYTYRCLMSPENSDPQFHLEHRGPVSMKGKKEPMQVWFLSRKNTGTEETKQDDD
In short: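 Heme-oxidized conditions: ODQ (40 microM, 1 h) pretreatment of CHO cells stably expressing human α1/β1 sGC, in buffer containing 0.1% BSA and IBMX.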

[2] = Human liver microsome (HLM) metabolic stability assay; assay type: in vitro ADME; conditions: human liver microsomes
In short: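 Compound at 1 uM incubated with human liver microsomes at 37° C. for 60 min after NADPH addition. Aliquots quenched in cold acetonitrile at 0, 5, 15, 30 and 60 min and analysed by LC/MS/MS. t1/2 from ln(% remaining) vs time slope; CLint, CLh and % Qh derived from it (n=1).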

[3] = physchem; conditions: kinetic from dmso stock
[4] = pH 2.2, aqueous buffer, Solubility (pH 2.2)
[5] = pH 4.5, aqueous buffer, Solubility (pH 4.5)
[6] = pH 6.8, aqueous buffer, Solubility (pH 6.8)

SMILES | EC50 [1] | Metabolic stability (Qh %), % hepatic blood flow [2] | solubility at 24 h [3, 4] | solubility at 24 h [3, 5] | solubility at 24 h [3, 6]
CCO[C@@H]1CN(c2nc(-c3cc(C)ccc3OCc3cc(OC)c4c(c3F)CCN(C3CCOCC3)C4)cs2)CC[C@@H]1C(=O)O [Compound 272] | 2 nM | <24% | 128 µg/mL (≈ 201 µM) | 54.1 µg/mL (≈ 84.6 µM) | 18.5 µg/mL (≈ 28.9 µM)
CO[C@H]1CN(c2cccc(-c3cccc(C)c3OCc3cc(F)c4c(c3)CCN(C3CCOCC3)CC4)n2)CC[C@H]1C(=O)O [Compound 273] | 5 nM | <24% | 120 µg/mL (≈ 198 µM) | 80.7 µg/mL (≈ 134 µM) | 64.3 µg/mL (≈ 107 µM)
CO[C@H]1CN(c2cccc(-c3cccc(C)c3OCc3cc(F)c4c(c3)CCN(C3COC3)CC4)n2)CC[C@H]1C(=O)O [Compound 274] | 4 nM | <24% | 114 µg/mL (≈ 198 µM) | 72 µg/mL (≈ 125 µM) | 65.5 µg/mL (≈ 114 µM)
CCO[C@H]1CN(c2nccc(-c3cccc(C)c3OCc3ccc4c(c3C)CCN(C3CCOCC3)CC4)n2)CC[C@H]1C(=O)O [Compound 275] | 32 nM | 28% | 117 µg/mL (≈ 190 µM) | 81.3 µg/mL (≈ 132 µM) | 84.5 µg/mL (≈ 137 µM)
CCO[C@@H]1CN(c2nccc(-c3cccc(C)c3OCc3ccc4c(c3C)CCN(C3CCOCC3)CC4)n2)CC[C@@H]1C(=O)O [Compound 276] | 150 nM | <24% | 126 µg/mL (≈ 206 µM) | 84.8 µg/mL (≈ 138 µM) | 90.6 µg/mL (≈ 147 µM)
CO[C@H]1CN(c2cccc(-c3cccc(C)c3OCc3ccc4c(c3F)CCN(C3CCOCC3)CC4)n2)CC[C@H]1C(=O)O [Compound 277] | 4 nM | <24% | 133 µg/mL (≈ 220 µM) | 97.1 µg/mL (≈ 161 µM) | 74.4 µg/mL (≈ 123 µM)
CO[C@H]1CN(c2cccc(-c3cccc(C)c3OCc3ccc4c(c3F)CCN(C3COC3)CC4)n2)CC[C@H]1C(=O)O [Compound 278] | 6 nM | <24% | 122 µg/mL (≈ 212 µM) | 85.1 µg/mL (≈ 148 µM) | 68 µg/mL (≈ 118 µM)
COCc1cc(COc2c(C)cccc2-c2cccc(N3C[C@@H]4C[C@]4(C(=O)O)[C@H]3COC)n2)cc2c1CN(C1CCOCC1)CC2 [Compound 279] | 65 nM | <24% | 128 µg/mL (≈ 203 µM) | 100 µg/mL (≈ 160 µM) | 82.8 µg/mL (≈ 132 µM)
COCc1cc(COc2c(C)cccc2-c2cccc(N3C[C@@H]4C[C@]4(C(=O)O)[C@H]3COC)n2)cc2c1CN(C1CCOC1)CC2 (stereo partly drawn) [Compound 280] | 140 nM | 30% | 120 µg/mL (≈ 196 µM) | 91 µg/mL (≈ 148 µM) | 79.3 µg/mL (≈ 129 µM)
COCc1cc(COc2c(C)cccc2-c2cccc(N3C[C@@H]4C[C@]4(C(=O)O)[C@H]3COC)n2)cc2c1CN(C1COC1)CC2 [Compound 281] | 267 nM | 25% | 120 µg/mL (≈ 200 µM) | 87.4 µg/mL (≈ 146 µM) | 83.1 µg/mL (≈ 139 µM)
CO[C@H]1CN(c2cccc(-c3cccc(C)c3OCc3ccc4c(c3C)CCN(C3COC3)CC4)n2)CC[C@H]1C(=O)O [Compound 282] | 14 nM | 58% | 137 µg/mL (≈ 240 µM) | 99.6 µg/mL (≈ 174 µM) | 80.5 µg/mL (≈ 141 µM)
CO[C@@H]1CN(c2cccc(-c3cccc(C)c3OCc3ccc4c(c3C)CCN(C3CCOC3)CC4)n2)CC[C@@H]1C(=O)O (stereo partly drawn) [Compound 283] | 4 nM | <24% | 124 µg/mL (≈ 212 µM) | 89.4 µg/mL (≈ 153 µM) | 68.4 µg/mL (≈ 117 µM)
COCc1cc(COc2c(C)cccc2-c2cccc(N3CC[C@H](C(=O)O)[C@H](OC)C3)n2)cc2c1CN(C1CCOC1)CC2 (stereo partly drawn) [Compound 284] | 231 nM | <24% | 129 µg/mL (≈ 215 µM) | 103 µg/mL (≈ 171 µM) | 83.5 µg/mL (≈ 139 µM)
COCc1cc(COc2c(C)cccc2-c2cccc(N3CC[C@H](C(=O)O)[C@H](OC)C3)n2)cc2c1CN(C1COC1)CC2 [Compound 285] | 359 nM | <24% | 146 µg/mL (≈ 248 µM) | 111 µg/mL (≈ 188 µM) | 97.6 µg/mL (≈ 166 µM)
COCc1cc(COc2c(C)cccc2-c2cccc(N3CC[C@H](C(=O)O)[C@H](OC)C3)n2)cc2c1CN(C1CCOCC1)CC2 [Compound 286] | 160 nM | <24% | 149 µg/mL (≈ 242 µM) | 119 µg/mL (≈ 193 µM) | 88.5 µg/mL (≈ 144 µM)
